Experimental data as given in US11124510B2, “Alkyl chain modified imidazoquinoline TLR7/8 agonist compounds and uses thereof” (Dynavax Technologies Corporation, priority 2017, dated 2021).

Tests used:
[1] = system: serum IL-6 and IL-12p40; experiment: In vivo systemic immune activation assay: serum IL-6 and IL-12p40 by ELISA after single subcutaneous injection; design: species or system mice; conditions: for serum IL-6 / serum IL-12p40: 5 μg subcutaneously in footpad, 95% sesame oil/5% ethanol, ± SEM
Procedure: Small molecule TLR7 and TLR7/8 agonists derived from the 1H-imidazo[4,5-c]quinoline privileged template (see e.g., Imiquimod, Resiquimod) are known to rapidly distribute to the systemic compartment following intratumoral, subcutaneous, or intramuscular injection. Broad systemic distribution of these agonist compounds in wild-type mice induces TLR7-dependent cytokine responses, primarily in spleen and liver cells, which can subsequently be detected in the serum within 3-6 hours. The rapid increase in serum cytokine biomarkers (e.g., IL-6 and IL-12p40) can be used to assess the kinetics of systemic distribution of a locally administered TLR agonist.
The kinetics of distribution of pharmaceutical compositions comprised of Compound Nos. 63-00, 63-17, or 63-10 formulated in 95% sesame oil/5% ethanol (v/v) were assessed following a single subcutaneous injection in wild-type mice. All in vivo procedures were conducted in accordance with approved Institutional Animal Care and Use Committee (IACUC) protocols. The animals were housed in a facility that is accredited by the Association for Accreditation and Laboratory Animal Care (AALAC, Frederick Md.). Wild-type female BALB/c mice (15-20 gm) were obtained from Envigo (Hayward, Calif.) and acclimated for 2-3 days prior to use.
The pharmaceutical compositions were made with the three compounds, at a final concentration of 200 μg/mL, in a manner similar to that described in Example B2-1. At T=0, groups of 3 mice were anesthetized with 1% isoflurane and injected subcutaneously in the right footpad with 5 μg of each of the three compounds, or a vehicle control, in 25 uL of 95% sesame oil/5% ethanol (v/v). Then, at T=3, 6, and 24 hours, three animals from each group were anesthetized with 1% isoflurane to facilitate blood collection by cardiac puncture. Samples were processed to serum, and stored at −20° C. for further analysis.

[2] = system: CT26 colon carcinoma; experiment: Anti-tumor efficacy, repeated intratumoral dosing in CT26 colon carcinoma-bearing wild-type mice; assay type: in vivo; conditions: 0.5-20 μg in 95% sesame oil/5% ethanol
Procedure: The effect of repeated weekly doses of intratumorally delivered pharmaceutical compositions comprised of Compound No. 63-10, 63-18, or 63-33 formulated in 95% sesame oil/5% ethanol (v/v) on tumor growth inhibition was assessed in syngeneic CT26 colon carcinoma-bearing Balb/c mice. All in vivo procedures were conducted in accordance with approved Institutional Animal Care and Use Committee (IACUC) protocols. The animals were housed in a facility that is accredited by the Association for Accreditation and Laboratory Animal Care (AALAC, Frederick, Md.). Wild-type female Balb/c mice (15-20 gm) were obtained from Envigo (Hayward, Calif.) and acclimated for 2-3 days prior to use.
The pharmaceutical compositions were made with the three compounds at final concentrations of 5, 50, and 200 μg/mL in a manner similar to that described in Example B2-1. […] On day 0, mice were anesthetized with 1% isoflurane and 80,000 CT26 tumor cells in 200 uL of RMPI-1640 culture media plus 2.5% fetal bovine serum were injected subcutaneously in the right flank. Tumors were allowed to grow until they were ˜35 mm^3, at which point animals were assigned to groups to begin treatment. Mice were injected weekly for 4 weeks intratumorally with 100 uL of a pharmaceutical composition comprising 20, 5, or 0.5 μgs of Compound No. 63-10, or 20 or 5 μgs of Compound Nos. 63-18, or 63-33 formulated in 95% sesame oil/5% ethanol (v/v), or a vehicle control, twice weekly for 3 weeks (experimental days 9, 12, 16, 19, 23, and 26). The TLR9 CpG agonist was injected intratumorally with 100 μL of a pharmaceutical composition comprised of 50 μgs of compound formulated in phosphate buffered saline on the same dosing schedule. Tumor sizes were measured twice weekly from days 8 through day 30 with calipers, with tumor volumes calculated using the formula: length, multiplied by width, multiplied by width, divided by 2.

## CCCCCCCCCCCCCC(=O)NCc1ccc(Cn2c(CCCC)nc3c(N)nc4ccccc4c32)cc1 [Compound No. 63-10, N-(4-((4-amino-2-butyl-1H-imidazo[4,5-c]quinolin-1-yl)methyl)benzyl)tetradecanamide]
[1]; 3 hours
  serum IL-6: 49 ± 32 pg/mL
  serum IL-12p40: 1,012±246 pg/mL
[1]; 6 hours
  serum IL-6: 33 ± 4 pg/mL
  serum IL-12p40: 2,179±597 pg/mL
[1]; 24 hours
  serum IL-6: 32 ± 2 pg/mL
  serum IL-12p40: 2,436±237 pg/mL
[1]; at 3, 6, or 24 hours, 5 μg subcutaneously
  increase in serum cytokines: no detectable increase
[2]
  CT26 tumor growth control compared to the vehicle control: robust CT26 tumor growth control
